Results reported in PubChem BioAssay AID1963832 (Molecular Pharmacology Branch, DTP, NCI, 2024).
pIC50: −log10 of the molar value.

Test system: 885724-159-R-J1-PDC complex spheroid viability
Experiment: Anticancer human tumor 885724-159-R-J1-PDC patient-derived pancreatic adenocarcinoma cell line growth inhibition [POLQ]
Conditions: for pIC50: curve of first compound; for viability, T/C: stronger effect = lower value
Summary of the method: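 Growth inhibition in 3D: complex spheroids (tumor PDC, HUVEC, MSC) treated with POLQ inhibitor combinations; where Cmax unknown, highest tested concentration 10 microM, except SN-38 at 1 microM.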

[1] = second compound 0.0316 µM, first compound 0.0316 µM
[2] = second compound 0.0316 µM, first compound 0.1 µM
[3] = second compound 0.0316 µM, first compound 0.316 µM
[4] = second compound 0.0316 µM, first compound 1 µM
[5] = second compound 0.0316 µM, first compound 3.16 µM
[6] = second compound 0.0316 µM, first compound 10 µM
[7] = second compound 0.1 µM, first compound 0.0316 µM
[8] = second compound 0.1 µM, first compound 0.1 µM
[9] = second compound 0.1 µM, first compound 0.316 µM
[10] = second compound 0.1 µM, first compound 1 µM
[11] = second compound 0.1 µM, first compound 3.16 µM
[12] = second compound 0.1 µM, first compound 10 µM
[13] = second compound 0.316 µM, first compound 0.0316 µM
[14] = second compound 0.316 µM, first compound 0.1 µM
[15] = second compound 0.316 µM, first compound 0.316 µM
[16] = second compound 0.316 µM, first compound 1 µM
[17] = second compound 0.316 µM, first compound 3.16 µM
[18] = second compound 0.316 µM, first compound 10 µM
[19] = second compound 1 µM, first compound 0.0316 µM
[20] = second compound 1 µM, first compound 0.1 µM
[21] = second compound 1 µM, first compound 0.316 µM
[22] = second compound 1 µM, first compound 1 µM
[23] = second compound 1 µM, first compound 3.16 µM
[24] = second compound 1 µM, first compound 10 µM
[25] = second compound 3.16 µM, first compound 0.0316 µM
[26] = second compound 3.16 µM, first compound 0.1 µM
[27] = second compound 3.16 µM, first compound 0.316 µM
[28] = second compound 3.16 µM, first compound 1 µM
[29] = second compound 3.16 µM, first compound 3.16 µM
[30] = second compound 3.16 µM, first compound 10 µM
[31] = second compound 10 µM, first compound 0.0316 µM
[32] = second compound 10 µM, first compound 0.1 µM
[33] = second compound 10 µM, first compound 0.316 µM
[34] = second compound 10 µM, first compound 1 µM
[35] = second compound 10 µM, first compound 3.16 µM
[36] = second compound 10 µM, first compound 10 µM
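Also: spheroids exposed to compounds for 7 days.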

## CC1COCCN1c1cc(-c2ccnn2C)c2ccnc(-c3ccn[nH]3)c2n1 (stereo unspecified) + COC1C(OC(N)=O)C(O)C(Oc2ccc3c(O)c(NC(=O)c4ccc(O)c(CC=C(C)C)c4)c(=O)oc3c2C)OC1(C)C
Second compound 0.0316 µM
  pIC50: 6.64
Second compound 0.1 µM
  pIC50: 6.68
Second compound 0.316 µM
  pIC50: 6.77
Second compound 1 µM
  pIC50: 6.73
Second compound 3.16 µM
  pIC50: 6.72
Second compound 10 µM
  pIC50: 6.61
[1]
  viability, T/C: 78.3%
[2]
  viability, T/C: 63.8%
[3]
  viability, T/C: 44.3%
[4]
  viability, T/C: 42.1%
[5]
  viability, T/C: 39%
[6]
  viability, T/C: 39.3%
[7]
  viability, T/C: 76.5%
[8]
  viability, T/C: 64.3%
[9]
  viability, T/C: 41.6%
[10]
  viability, T/C: 41.5%
[11]
  viability, T/C: 35.2%
[12]
  viability, T/C: 35.6%
[13]
  viability, T/C: 81.1%
[14]
  viability, T/C: 53.8%
[15]
  viability, T/C: 44.3%
[16]
  viability, T/C: 43.5%
[17]
  viability, T/C: 43.3%
[18]
  viability, T/C: 36.2%
[19]
  viability, T/C: 84.1%
[20]
  viability, T/C: 55.8%
[21]
  viability, T/C: 43.6%
[22]
  viability, T/C: 43.7%
[23]
  viability, T/C: 41%
[24]
  viability, T/C: 33.5%
[25]
  viability, T/C: 76.4%
[26]
  viability, T/C: 55.9%
[27]
  viability, T/C: 45.5%
[28]
  viability, T/C: 37.8%
[29]
  viability, T/C: 37.8%
[30]
  viability, T/C: 33.8%
[31]
  viability, T/C: 77.1%
[32]
  viability, T/C: 57.6%
[33]
  viability, T/C: 48.2%
[34]
  viability, T/C: 41.1%
[35]
  viability, T/C: 38.9%
[36]
  viability, T/C: 34.4%

## CC1COCCN1c1cc(C2(S(C)(=N)=O)CC2)nc(-c2ccnc3[nH]ccc23)n1 (stereo unspecified) + COC1C(OC(N)=O)C(O)C(Oc2ccc3c(O)c(NC(=O)c4ccc(O)c(CC=C(C)C)c4)c(=O)oc3c2C)OC1(C)C
Second compound 0.0316 µM
  pIC50: 5.18
Second compound 0.1 µM
  pIC50: 5.12
Second compound 0.316 µM
  pIC50: 5.32
Second compound 1 µM
  pIC50: 5.42
Second compound 3.16 µM
  pIC50: 5.26
Second compound 10 µM
  pIC50: 5.24
[1]
  viability, T/C: 95.9%
[2]
  viability, T/C: 96.8%
[3]
  viability, T/C: 93%
[4]
  viability, T/C: 67.8%
[5]
  viability, T/C: 60.3%
[6]
  viability, T/C: 44.6%
[7]
  viability, T/C: 102%
[8]
  viability, T/C: 89.7%
[9]
  viability, T/C: 95.4%
[10]
  viability, T/C: 73.6%
[11]
  viability, T/C: 59.1%
[12]
  viability, T/C: 47%
[13]
  viability, T/C: 87.5%
[14]
  viability, T/C: 98%
[15]
  viability, T/C: 95.9%
[16]
  viability, T/C: 68.7%
[17]
  viability, T/C: 56.5%
[18]
  viability, T/C: 43.9%
[19]
  viability, T/C: 101%
[20]
  viability, T/C: 102%
[21]
  viability, T/C: 89%
[22]
  viability, T/C: 72%
[23]
  viability, T/C: 49.1%
[24]
  viability, T/C: 45.5%
[25]
  viability, T/C: 102%
[26]
  viability, T/C: 85.6%
[27]
  viability, T/C: 91.3%
[28]
  viability, T/C: 72.6%
[29]
  viability, T/C: 54.8%
[30]
  viability, T/C: 43.9%
[31]
  viability, T/C: 111%
[32]
  viability, T/C: 92.2%
[33]
  viability, T/C: 94.1%
[34]
  viability, T/C: 72.7%
[35]
  viability, T/C: 51.7%
[36]
  viability, T/C: 47%

## CCCS(=O)(=O)Nc1ccc(F)c(C(=O)c2c[nH]c3ncc(-c4ccc(Cl)cc4)cc23)c1F + COC1C(OC(N)=O)C(O)C(Oc2ccc3c(O)c(NC(=O)c4ccc(O)c(CC=C(C)C)c4)c(=O)oc3c2C)OC1(C)C
Second compound 0.0316 µM
  pIC50: < 5.00
Second compound 0.1 µM
  pIC50: < 5.00
Second compound 0.316 µM
  pIC50: < 5.00
Second compound 1 µM
  pIC50: < 5.00
Second compound 3.16 µM
  pIC50: < 5.00
Second compound 10 µM
  pIC50: < 5.00
[1]
  viability, T/C: 106%
[2]
  viability, T/C: 114%
[3]
  viability, T/C: 140%
[4]
  viability, T/C: 148%
[5]
  viability, T/C: 137%
[6]
  viability, T/C: 65.9%
[7]
  viability, T/C: 109%
[8]
  viability, T/C: 114%
[9]
  viability, T/C: 130%
[10]
  viability, T/C: 157%
[11]
  viability, T/C: 143%
[12]
  viability, T/C: 67.8%
[13]
  viability, T/C: 104%
[14]
  viability, T/C: 121%
[15]
  viability, T/C: 131%
[16]
  viability, T/C: 163%
[17]
  viability, T/C: 137%
[18]
  viability, T/C: 76.6%
[19]
  viability, T/C: 108%
[20]
  viability, T/C: 107%
[21]
  viability, T/C: 123%
[22]
  viability, T/C: 145%
[23]
  viability, T/C: 139%
[24]
  viability, T/C: 68.1%
[25]
  viability, T/C: 110%
[26]
  viability, T/C: 103%
[27]
  viability, T/C: 122%
[28]
  viability, T/C: 154%
[29]
  viability, T/C: 151%
[30]
  viability, T/C: 82.4%
[31]
  viability, T/C: 111%
[32]
  viability, T/C: 114%
[33]
  viability, T/C: 128%
[34]
  viability, T/C: 139%
[35]
  viability, T/C: 152%
[36]
  viability, T/C: 76.3%
